In the supplement of paper PMC9763283:

Legend:
Assay in all cases: area under growth-rate inhibition curve (AUC GRI) (dimensionless (GR-based AUC)); higher = less growth inhibition
Conditions in all cases: exposure time: 72 h; concentrations: 0.1, 1, 10 uM
BT474-LTR = system: BT474-LTR
How it was run: (§1)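 Six breast cancer cell line models were used: two triple-negative lines, plus parental HER2+ lines and HER2+ lines resistant to a two-drug combination, each plated at an optimised log-phase density and treated with compound at 0.1, 1 or 10 µM for 72 h. After fixation in 4% paraformaldehyde, nuclei were stained with Hoechst 33342 or DAPI, imaged and counted. Growth was corrected using Day 0 plates, untreated Day 3 plates and DMSO controls, with 2 biological replicates. These corrected counts gave the area under the growth-rate inhibition curve.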

BT474-P = system: BT474-P
How it was run: as §1

MDA-MB-231 = system: MDA-MB-231
How it was run: as §1

MDA-MB-468 = system: MDA-MB-468
How it was run: as §1

SKBR3-LTR = system: SKBR3-LTR
How it was run: as §1

SKBR3-P = system: SKBR3-P
How it was run: as §1

SMILES	area under growth-rate inhibition curve (BT474-LTR)	area under growth-rate inhibition curve (BT474-P)	area under growth-rate inhibition curve (MDA-MB-231)	area under growth-rate inhibition curve (MDA-MB-468)	area under growth-rate inhibition curve (SKBR3-LTR)	area under growth-rate inhibition curve (SKBR3-P)
CN(C)C(=O)Oc1cc(OC(=O)N(C)C)cc(C(O)CNC(C)(C)C)c1.[Cl-].[H+] (stereo unspecified) [Bambuterol HCl]	1.09	1.06	1.04	1.03	1.03	1.01
Cc1c(C(=O)NN2CCCCC2)nn(-c2ccc(Cl)cc2Cl)c1-c1ccc(Cl)cc1 [Rimonabant]	1.07	0.979	1	0.987	1.04	0.953
COC(=O)[C@H](c1ccccc1Cl)N1CCc2sccc2C1 [Clopidogrel]	1.07	1.06	1	1.03	1.06	1.01
CC(C)C1NC(=O)C(CCCCN)NC(=O)C(Cc2c[nH]c3ccccc23)NC(=O)C(Cc2ccc(O)cc2)NC(=O)C(NC(=O)C(N)Cc2ccc3ccccc3c2)CSSCC(C(=O)NC(C(N)=O)C(C)O)NC1=O (stereo unspecified) [lanreotide]	1	1	0.986	1.02	1.01	1.01
O=C(O)COCCN1CCN(C(c2ccccc2)c2ccc(Cl)cc2)CC1.[Cl-].[Cl-].[H+].[H+] (stereo unspecified) [Cetirizine DiHCl]	1.07	1.03	1.02	1	1.03	0.997
COc1ccc(C(CN(C)C)C2(O)CCCCC2)cc1 (stereo unspecified) [Venlafaxine]	0.974	0.982	0.983	0.994	1.01	0.972
CC(C)NCC(O)COc1ccc(CCOCC2CC2)cc1.[Cl-].[H+] (stereo unspecified) [Betaxolol hydrochloride (Betoptic)]	1.1	1.02	1.05	1.04	1.06	0.98
CCN(CC)C(=O)c1ccc(C2=CC3(CCNCC3)Oc3cccc(O)c32)cc1.Cl [ADL5859 HCl]	1.07	1.05	1.03	1.04	1.1	1.03
C[N+]1(C)[C@@H]2CC(OC(=O)C(O)(c3cccs3)c3cccs3)C[C@H]1C1OC12.O.[Br-] (stereo partly specified) [Tiotropium Bromide hydrate]	1.12	1.05	1.05	1.03	1.04	1.02
CCN(CC)CCOc1ccc(C(=C(Cl)c2ccccc2)c2ccccc2)cc1.O=C(O)CC(O)(CC(=O)O)C(=O)O [Clomifene citrate]	0.876	0.796	0.915	0.94	0.941	0.914
COCCCC/C(=N\OCCN)c1ccc(C(F)(F)F)cc1.O=C(O)/C=C\C(=O)O [Fluvoxamine maleate]	1.1	1.04	1.01	1.03	1.05	1.02
[Cl-].[H+].c1ccc2c(c1)CCCC2C1=NCCN1 (stereo unspecified) [Tetrahydrozoline HCl]	1.07	1.03	1.01	1.03	1.02	1.02
Cl.Clc1ccc2nsnc2c1NC1=NCCN1 [Tizanidine HCl]	1.07	1.02	1.02	1.02	1.01	1
Cc1ccc(C2OC(CO)C(O)C(O)C2O)cc1Cc1ccc(-c2ccc(F)cc2)s1 (stereo unspecified) [Canagliflozin]	1.07	1.02	1.02	1	1.05	1.03
O=S(=O)(c1ccccc1)c1cnc2c(N3CCNCC3)cccc2c1	1.08	0.99	1.03	1.01	1.05	0.997
CN/C(=C\[N+](=O)[O-])NCCSCc1ccc(CN(C)C)o1 [Ranitidine]	1.1	1.07	1.01	1.04	1.03	1.03
CCC(COC(=O)c1cc(OC)c(OC)c(OC)c1)(c1ccccc1)N(C)C (stereo unspecified) [Trimebutine]	0.977	0.981	0.972	0.984	1	1.03
CC(=O)[C@H]1CC[C@H]2[C@@H]3CC=C4C[C@@H](O)CC[C@]4(C)[C@H]3CC[C@]12C [Pregnenolone]	1.09	1.02	1.03	1.02	1.05	0.999
COc1ccc(CN(CCN(C)C)c2ccccn2)cc1.O=C(O)/C=C\C(=O)O [Mepyramine maleate]	1.06	1.03	1.05	1.05	1.05	1.05
CC[N+](CC)(CC)CCOc1cccc(OCC[N+](CC)(CC)CC)c1OCC[N+](CC)(CC)CC.[I-].[I-].[I-] [Gallamine Triethiodide]	1.08	1.02	1.03	1.01	1.03	1
CC(=O)OCC(=O)NCCCOc1cccc(CN2CCCCC2)c1.[Cl-].[H+] [Roxatidine Acetate HCl]	1.07	1.04	1.03	1.02	1.04	0.991
CN1CCc2cccc3c2[C@H]1Cc1ccc(O)c(O)c1-3.[Cl-].[H+] [(R)-(-)-Apomorphine hydrochloride]	0.963	0.933	1.03	0.977	1.04	0.965
CN(C)CCC(c1ccc(Br)cc1)c1ccccn1.O=C(O)/C=C\C(=O)O (stereo unspecified) [Brompheniramine hydrogen maleate]	1.09	1.05	1.03	1.04	1.04	0.998
O=C(CS(=O)Cc1ccco1)NC/C=C\COc1cc(CN2CCCCC2)ccn1 (stereo unspecified) [Lafutidine]	1.1	1.02	1.03	1.02	1.06	0.987
COC(=O)C1=CCCN(C)C1.[Br-].[H+] [Arecoline]	1.06	1.04	1.03	0.988	1.03	1.02
NCCCC[C@H](N[C@@H](CCc1ccccc1)C(=O)O)C(=O)N1CCC[C@H]1C(=O)O.O.O [Lisinopril]	1.1	1.06	1.01	1	1.08	1.02
